“Also recorded” adds a separate entry of the source.

Format in all cases: cell-based, human
One experiment deals with hMSCs. As to the kind of experiment: Alkaline phosphatase (ALP) activity of hMSCs in osteogenic media. The method, then:
For non-mineralizing osteogenic differentiation, hMSCs were plated in 12-well plates at 100 cells cm^−2. Upon reaching about 70% confluency, the media was changed to osteogenic base media (OBM) containing 50 μg mL^−1 ascorbic acid and 5 mM β-glycerol phosphate and either GW9662 or DMSO. Media was changed every 2 days for 8-10 days following measurement of ALP activity. For this purpose, the monolayer was washed with PBS and then with ALP reaction buffer (100 mM Tris-HCl, pH 9, containing 100 mM KCl and 1 mM MgCl2). One half mL of ALP buffer then 0.5 mL p-nitrophenol phosphate (PNPP) was rapidly added to the wells. ALP activity was measured as the rate of PNPP conversion to p-nitrophenolate by monitoring the absorbance at 405 nm every 30 seconds for 9 minutes using a plate reader. The rates were normalized against cell number and statistically analyzed using one-way analysis of variance (ANOVA) and Tukey post test for multiple comparisons or by Student's t-test, for single, unrelated comparisons.
Early osteogenic differentiation and alkaline phosphatase assays. MSCs were plated in 6-well plates at an initial plating density of 100 cells per cm^2 and cultured in standard complete media for 6 days until semi-confluence (approximately 5,000 cells per cm^2). Osteogenic base media consisting of complete media containing 5 mM β-GP and 50 μg mL^−1 ascorbate-2-phosphate and the appropriate inhibitor or vehicle was then used to induce early osteogenic differentiation. Assays were allowed to proceed for 8-10 days with changes of media every 2 days. ALP assays were performed as previously described (Gunn et al., 2006, Stem Cells 24:986-991).
(§1) In order to characterize the influence of 7AIPM on osteogenic differentiation, hMSC's from two donors were cultured as described elsewhere herein with the addition of varying concentrations of the compound or vehicle to the media. Samples of the media were collected daily for analysis. These samples were analyzed for the presence of OPG and Dkk-1 using ELISA. Alkaline phosphatase activity of the monolayers and cell numbers were measured using a spectrophotometer.

A further experiment relates to osteoprotegerin (OPG). As to the kind of experiment: OPG secretion by ELISA. The note with it: 7AIPM in osteogenic culture. The method, then: as §1, with “ELISAs. ELISA for CXCL6, Dkk-1, GROa, GRO13, and OPG were carried out by using nonbiotinylated polyclonal capture antibodies and biotinylated detection antibodies that were commercially acquired on coated 96-well plates The biotinylated […] antibodies were detected by using horseradish peroxidase-conjugated streptavidin and TMB substrate. ELISA for IL-lb were performed by using commercially acquired kits. In” for “In”

A further experiment concerns Dkk-1. As to the kind of experiment: Dkk-1 secretion by ELISA. Particulars: 7AIPM in osteogenic culture. The method, then:
as §1, with “ELISAs. ELISA for CXCL6, Dkk-1, GROa, GRO13, and OPG were carried out by using nonbiotinylated polyclonal capture antibodies and biotinylated detection antibodies that were commercially acquired on coated 96-well plates The biotinylated […] antibodies were detected by using horseradish peroxidase-conjugated streptavidin and TMB substrate. ELISA for IL-lb were performed by using commercially acquired kits. In” for “In”

For the substance “Dldc-1: Wnt inhibitor added to block canonical Wnt signaling”, in the experiment with hMSCs (osteogenic media without dexamethasone, 8 days), the ALP activity entry is “attenuated”.

7-azaindolyl-pyrazinylmaleimide [7AIPM]: the ALP activity entry with hMSCs (MSC monolayers, osteogenic medium with increasing doses, four days) is on record as “increased; also recorded: biphasic dose dependant effect”. Further, the OPG concentration entry in the experiment with osteoprotegerin (OPG) is “increased”. In addition, the Dkk-1 concentration result with Dkk-1 is on record as “decrease”.

These data come from patent US9452185B2, “Mesenchymal stem cells and supports for tissue regeneration, repair and reconstruction” (THE TEXAS A&M UNIVERSITY SYSTEM, priority 2009, dated 2016).
